Data on 1 molecule can be found in ChEMBL document CHEMBL3232866, “Design of novel potent antihyperlipidemic agents with antioxidant/anti-inflammatory properties: exploiting phenothiazine's strong antioxidant activity” (J Med Chem, 2014).

Data set [1] has as its system Mus musculus. Briefly: Effect on food intake in chronic high-fat diet (2.5 w/w cholesterol, 0.5% w/w cholic acid, 10% w/w peanut oil) fed SKH-2 mouse at 56 umol/kg, ip bid for 30 days. The format is ADME, organism-based. Particulars: in vivo, 720 h.
The subject of data set [2] is Mus musculus. Briefly: Effect on body weight in chronic high-fat diet (2.5 w/w cholesterol, 0.5% w/w cholic acid, 10% w/w peanut oil) fed SKH-2 mouse at 56 umol/kg, ip bid for 30 days. Particulars: in vivo, 720 h. The format is ADME, organism-based.
Data set [3] deals with Mus musculus. Briefly: Effect on blood glucose level in chronic high-fat diet (2.5 w/w cholesterol, 0.5% w/w cholic acid, 10% w/w peanut oil) fed SKH-2 mouse at 56 umol/kg, ip bid for 30 days. In kind it is ADME, organism-based. The following applies: in vivo, 720 h.
Data set [4] concerns Mus musculus. As to the kind of experiment: Antidyslipidemic activity in chronic high-fat diet (2.5 w/w cholesterol, 0.5% w/w cholic acid, 10% w/w peanut oil) fed SKH-2 mouse assessed as HDL/LDL ratio in plasma at 56 umol/kg, ip bid for 30 days measured on day 30 (reference value: 0.2 no unit). In kind it is functional.
The nature of data set [5]: Antioxidant activity in rat liver microsome membrane assessed as inhibition of lipid peroxidation after 45 mins by TBARS-based spectrophotometric assay. In kind it is functional, microsomes. On the technique in general: Liver microsomes are vesicles of endoplasmic reticulum, rich in cytochrome P450 enzymes.
The subject of data set [6] is Radical scavenging activity. Briefly: Antioxidant activity assessed as DPPH radical scavenging activity up to 50 uM measured within 15 mins. The format is functional. On the technique in general: DPPH is a stable violet radical that fades when it is reduced.
In data set [7] the test system is Radical scavenging activity. Briefly: Antioxidant activity assessed as DPPH radical scavenging activity after 30 mins. The format is functional.
Data set [8] has as its target T1, Squalene synthase (Rattus norvegicus) (UniProt Q02769).
T1 sequence (whole entry): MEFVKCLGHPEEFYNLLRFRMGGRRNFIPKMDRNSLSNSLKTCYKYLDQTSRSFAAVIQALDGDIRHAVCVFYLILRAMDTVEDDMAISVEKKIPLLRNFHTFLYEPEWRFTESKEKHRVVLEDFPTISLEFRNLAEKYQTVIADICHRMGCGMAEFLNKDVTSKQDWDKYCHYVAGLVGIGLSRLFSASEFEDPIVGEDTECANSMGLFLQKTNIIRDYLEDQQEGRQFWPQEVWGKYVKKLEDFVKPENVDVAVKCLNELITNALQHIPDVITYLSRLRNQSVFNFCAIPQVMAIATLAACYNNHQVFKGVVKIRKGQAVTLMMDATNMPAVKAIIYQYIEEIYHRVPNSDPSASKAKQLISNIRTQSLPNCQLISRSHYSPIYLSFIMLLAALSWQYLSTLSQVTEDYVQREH
Briefly: (§1) Inhibition of squalene synthase in rat liver microsomes assessed as decrease in conversion of [3H]FPP to squalene.

The next data set addresses T2, Squalene synthase (Rattus norvegicus, UniProt Q02769).
T2 sequence (Q02769 whole entry): T1 sequence (whole entry)
The data set is described as §1.

Data set [9] concerns the target T3, Prostaglandin G/H synthase 1 (Bos taurus) (UniProt O62664).
T3 sequence (whole entry): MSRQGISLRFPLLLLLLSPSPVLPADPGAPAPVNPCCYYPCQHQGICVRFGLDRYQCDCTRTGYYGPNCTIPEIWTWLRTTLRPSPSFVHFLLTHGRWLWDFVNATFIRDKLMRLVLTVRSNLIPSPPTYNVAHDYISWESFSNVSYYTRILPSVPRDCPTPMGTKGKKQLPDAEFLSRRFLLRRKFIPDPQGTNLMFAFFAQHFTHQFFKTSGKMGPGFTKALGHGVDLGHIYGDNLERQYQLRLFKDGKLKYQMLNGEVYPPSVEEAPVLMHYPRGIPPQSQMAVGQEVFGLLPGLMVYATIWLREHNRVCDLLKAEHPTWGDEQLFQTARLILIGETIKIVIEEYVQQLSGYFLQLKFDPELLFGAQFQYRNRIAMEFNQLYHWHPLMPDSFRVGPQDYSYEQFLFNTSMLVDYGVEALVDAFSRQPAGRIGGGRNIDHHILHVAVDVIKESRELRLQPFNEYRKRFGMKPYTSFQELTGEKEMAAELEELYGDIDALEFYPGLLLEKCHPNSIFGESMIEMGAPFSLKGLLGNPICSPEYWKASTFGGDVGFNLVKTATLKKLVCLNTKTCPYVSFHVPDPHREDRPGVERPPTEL
As to the kind of experiment: Inhibition of bovine COX-1 assessed as PGF2-alpha formation using arachidonic acid as substrate at 20 uM by enzyme immunoassay.

Data set [10] deals with Mus musculus. Briefly: Antidyslipidemic activity in chronic high-fat diet (2.5 w/w cholesterol, 0.5% w/w cholic acid, 10% w/w peanut oil) fed SKH-2 mouse assessed as decrease in total cholesterol level in plasma at 56 umol/kg, ip bid for 21 days. The format is functional. The following applies: SKH-2, Plasma, 504 h.
The test system of data set [11] is Mus musculus. As to the kind of experiment: Antidyslipidemic activity in chronic high-fat diet (2.5 w/w cholesterol, 0.5% w/w cholic acid, 10% w/w peanut oil) fed SKH-2 mouse assessed as decrease in LDL level in plasma at 56 umol/kg, ip bid for 21 days. The format is functional. Particulars: SKH-2, Plasma, 504 h.
Data set [12] concerns Mus musculus. As to the kind of experiment: Antidyslipidemic activity in chronic high-fat diet (2.5 w/w cholesterol, 0.5% w/w cholic acid, 10% w/w peanut oil) fed SKH-2 mouse assessed as increase in HDL level in plasma at 56 umol/kg, ip bid for 30 days measured on day 30 relative to control. The format is functional.
The subject of data set [13] is Mus musculus. As to the kind of experiment: Antidyslipidemic activity in chronic high-fat diet (2.5 w/w cholesterol, 0.5% w/w cholic acid, 10% w/w peanut oil) fed SKH-2 mouse assessed as increase in HDL level in plasma at 56 umol/kg, ip bid for 30 days measured on day 30 relative to day 0. The format is functional.

Active and inactive are the calls of the source. The calls are words filed in the database; no cut-off is given here.

A word on the IC50: it is the concentration that inhibits the measured activity by half. By inhibition is commonly meant the share of the control response that was lost under treatment. Usually inhibition in vivo stands for the percentage by which the read-out fell short of the control. For `CN1CC(O)(c2ccc3c(c2)Nc2ccccc2S3)Sc2ccccc21` (centres undefined), the Activity entry is on record as “Non-toxic” in the data set with Mus musculus [1]; “Non-toxic” in the data set on Mus musculus [2]; “Non-toxic” in the data set with Mus musculus [3]; 32% with Mus musculus [12]; 100% in the data set on Mus musculus [13]. The Ratio in the data set with Mus musculus [4] came to 1.3. Besides, the IC50 in [5] turned out to be 0.98 µM; in [7], 77 µM; at Squalene synthase, 3.6 µM. For the same molecule, the result in data set [6] was Active. Further, the values for the inhibition entry in data set [8] and in data set [9] were “Dose-dependent effect” and 67%, respectively. In addition, the inhibition in vivo at 56 µmol/kg in the data set with Mus musculus [10] is 48%; in the data set with Mus musculus [11] it was 80%.
